Source: patent US9120812B2, “Pyrimidooxazocine derivatives as mTOR-inhibitors” (SANOFI, priority 2012, dated 2015)
pIC50: −log10 of the molar value.

How the values were obtained:
[1] = molecular target: mTOR (human recombinant aa mTOR 1360-2549) (Homo sapiens (Human), UniProt P42345); test: mTOR enzymatic test by TR-FRET (phosphorylation of GFP-4EBP1); type: biochemical
Procedure: Model 1: mTOR Enzymatic Test by TR-FRET (Time-resolved Fluorescence Resonance Energy Transfer).
The test detects the phosphorylation of the substrate GFP-4EBP1 using a terbium-labelled antibody that is specific for the phospho-Thr46 epitope. Binding of the Tb-antibody to the phosphorylated GFP peptide allows the transfer of energy from Tb, excited at 340 nm, to GFP with an increase in the fluorescence emission of the GFP at 520 nm. […] The mixture is incubated for 30 minutes at room temperature. 10 μl of solution are taken up and the reaction is quenched by adding 10 μl of Tb-antibody solution (Invitrogen PV4757)/EDTA (2 nM Tb-Ac and 10 mM EDTA final). After 60 minutes at room temperature, the fluorescence at 490 nm, from the Tb emission, and at 520 nm, from the GFP emission, is measured in a BMG PHERAstar reader equipped with a Lanthascreen™ filter (excitation at 340 nm, emission at 490 and 520 nm). The results are given in the form of the 520/490 ratio.

[2] = system: U87MG tumour cells; test: Test of in vitro proliferation of U87MG tumour cells; type: cell-based; conditions: Homo sapiens, U-87 MG, 72 h, U87MG cells, 72 hours; read-out: U87 Cell Proliferation IC50
Procedure: Model 4: Test of in vitro Proliferation of U87MG Tumour Cells.
The cell growth is determined with the reagent CellTiter 96 AQueous One Solution Cell Proliferation Assay from Promega (Cat. No. G3581).

[3] = system: Akt-pS473 in U87MG cells; conditions: Homo sapiens, U-87 MG; for IC50: read-out: U87 Akt-pS473 % Inhibition or IC50, nM (IC50), U87MG cells; for inhibition at 1 µM: read-out: U87 Akt-pS473 % Inhibition
[4] = molecular target: PI3Kα (p110α/p85α) (Homo sapiens (Human), UniProt P42336); test: PI3Kα enzymatic test by measuring the consumption of ATP; type: biochemical
PI3Kα (p110α/p85α), sequence (P42336 whole entry): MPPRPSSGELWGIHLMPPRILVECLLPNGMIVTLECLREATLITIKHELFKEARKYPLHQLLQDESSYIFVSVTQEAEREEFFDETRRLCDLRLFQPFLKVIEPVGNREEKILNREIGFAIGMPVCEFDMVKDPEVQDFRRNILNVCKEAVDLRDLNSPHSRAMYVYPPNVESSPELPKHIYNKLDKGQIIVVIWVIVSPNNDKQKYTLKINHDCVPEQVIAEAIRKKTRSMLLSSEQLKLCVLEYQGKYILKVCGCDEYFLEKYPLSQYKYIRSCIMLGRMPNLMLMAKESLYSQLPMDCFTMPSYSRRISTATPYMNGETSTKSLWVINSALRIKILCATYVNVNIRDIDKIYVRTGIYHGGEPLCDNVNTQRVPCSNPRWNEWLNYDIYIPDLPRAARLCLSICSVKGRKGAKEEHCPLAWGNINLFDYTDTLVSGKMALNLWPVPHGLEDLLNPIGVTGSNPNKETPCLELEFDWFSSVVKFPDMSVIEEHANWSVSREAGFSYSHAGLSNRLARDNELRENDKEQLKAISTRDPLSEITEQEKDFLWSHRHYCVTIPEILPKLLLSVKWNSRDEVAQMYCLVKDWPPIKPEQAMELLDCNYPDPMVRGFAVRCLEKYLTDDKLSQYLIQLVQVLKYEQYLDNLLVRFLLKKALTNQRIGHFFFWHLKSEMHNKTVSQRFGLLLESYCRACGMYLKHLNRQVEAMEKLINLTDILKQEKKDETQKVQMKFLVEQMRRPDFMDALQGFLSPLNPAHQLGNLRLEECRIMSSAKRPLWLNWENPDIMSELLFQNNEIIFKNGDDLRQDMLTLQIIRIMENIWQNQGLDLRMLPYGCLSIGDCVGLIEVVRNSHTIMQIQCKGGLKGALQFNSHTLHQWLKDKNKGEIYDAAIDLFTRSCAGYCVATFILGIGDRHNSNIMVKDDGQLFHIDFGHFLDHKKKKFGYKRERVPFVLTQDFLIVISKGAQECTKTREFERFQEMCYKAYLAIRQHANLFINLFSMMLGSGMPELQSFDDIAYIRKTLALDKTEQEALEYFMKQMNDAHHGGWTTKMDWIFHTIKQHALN
PI3Kα (p110α/p85α), sequence (P27986 whole entry partner): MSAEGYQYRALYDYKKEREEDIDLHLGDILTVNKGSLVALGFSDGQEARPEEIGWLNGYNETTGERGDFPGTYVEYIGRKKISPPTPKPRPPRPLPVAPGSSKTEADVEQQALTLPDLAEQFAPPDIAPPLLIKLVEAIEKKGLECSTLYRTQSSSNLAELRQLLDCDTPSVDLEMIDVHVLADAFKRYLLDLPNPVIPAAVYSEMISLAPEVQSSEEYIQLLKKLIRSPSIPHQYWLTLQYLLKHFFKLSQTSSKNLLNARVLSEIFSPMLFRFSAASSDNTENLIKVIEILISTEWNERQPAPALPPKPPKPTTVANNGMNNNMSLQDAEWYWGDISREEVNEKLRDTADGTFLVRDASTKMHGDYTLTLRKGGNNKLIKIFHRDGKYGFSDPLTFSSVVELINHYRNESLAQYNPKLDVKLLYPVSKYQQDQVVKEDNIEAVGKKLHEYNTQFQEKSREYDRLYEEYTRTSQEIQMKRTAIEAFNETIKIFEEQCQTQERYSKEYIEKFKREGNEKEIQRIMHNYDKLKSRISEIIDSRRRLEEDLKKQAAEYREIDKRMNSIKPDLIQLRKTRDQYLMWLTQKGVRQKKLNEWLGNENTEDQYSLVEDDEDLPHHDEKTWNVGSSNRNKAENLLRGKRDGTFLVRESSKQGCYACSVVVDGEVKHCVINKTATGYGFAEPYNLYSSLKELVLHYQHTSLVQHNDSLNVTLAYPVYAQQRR
Procedure: Model 2: PI3Kα Enzymatic Test by Measuring the Consumption of ATP.
The test uses a lucifeurerin/luciferase system to measure the concentration of ATP and its consumption during the enzymatic reaction. The test is performed in 96-well format (Corning/Costar 96 black flat-bottomed half-wells plate, ref. 3694) in a total volume of 30 μl.
To 1 μl of inhibitor in 100% DMSO are added (final concentrations) 50 μM of the substrate PIP2 ((L-α-phosphatidyl-D-myoinositol 4,5-bisphosphate, Echelon 117P-4516-0500), 2 μM of ATP and 1.7 μg/ml of PI3Kα, (p110α/p85α, Invitrogen PV4788) in a buffer of Tris/HCl 50 mM pH 7.5, EGTA 1 mM, MgCl2 10 mM, Chaps 0.03%, 1 mM DTT). After 90 minutes, the reaction is quenched by adding 20 μl/well of KinaseGlo reagent (Promega V6713). After 10 minutes in the dark, the luminescence is read on the PHERAStar microplate reader (reading at 0.8 sec/well).
The IC50 values are determined by the preparation of successive threefold dilutions on at least a scale of 10 000.

mTOR (human recombinant aa mTOR 1360-2549), sequence (P42345 1360-2549): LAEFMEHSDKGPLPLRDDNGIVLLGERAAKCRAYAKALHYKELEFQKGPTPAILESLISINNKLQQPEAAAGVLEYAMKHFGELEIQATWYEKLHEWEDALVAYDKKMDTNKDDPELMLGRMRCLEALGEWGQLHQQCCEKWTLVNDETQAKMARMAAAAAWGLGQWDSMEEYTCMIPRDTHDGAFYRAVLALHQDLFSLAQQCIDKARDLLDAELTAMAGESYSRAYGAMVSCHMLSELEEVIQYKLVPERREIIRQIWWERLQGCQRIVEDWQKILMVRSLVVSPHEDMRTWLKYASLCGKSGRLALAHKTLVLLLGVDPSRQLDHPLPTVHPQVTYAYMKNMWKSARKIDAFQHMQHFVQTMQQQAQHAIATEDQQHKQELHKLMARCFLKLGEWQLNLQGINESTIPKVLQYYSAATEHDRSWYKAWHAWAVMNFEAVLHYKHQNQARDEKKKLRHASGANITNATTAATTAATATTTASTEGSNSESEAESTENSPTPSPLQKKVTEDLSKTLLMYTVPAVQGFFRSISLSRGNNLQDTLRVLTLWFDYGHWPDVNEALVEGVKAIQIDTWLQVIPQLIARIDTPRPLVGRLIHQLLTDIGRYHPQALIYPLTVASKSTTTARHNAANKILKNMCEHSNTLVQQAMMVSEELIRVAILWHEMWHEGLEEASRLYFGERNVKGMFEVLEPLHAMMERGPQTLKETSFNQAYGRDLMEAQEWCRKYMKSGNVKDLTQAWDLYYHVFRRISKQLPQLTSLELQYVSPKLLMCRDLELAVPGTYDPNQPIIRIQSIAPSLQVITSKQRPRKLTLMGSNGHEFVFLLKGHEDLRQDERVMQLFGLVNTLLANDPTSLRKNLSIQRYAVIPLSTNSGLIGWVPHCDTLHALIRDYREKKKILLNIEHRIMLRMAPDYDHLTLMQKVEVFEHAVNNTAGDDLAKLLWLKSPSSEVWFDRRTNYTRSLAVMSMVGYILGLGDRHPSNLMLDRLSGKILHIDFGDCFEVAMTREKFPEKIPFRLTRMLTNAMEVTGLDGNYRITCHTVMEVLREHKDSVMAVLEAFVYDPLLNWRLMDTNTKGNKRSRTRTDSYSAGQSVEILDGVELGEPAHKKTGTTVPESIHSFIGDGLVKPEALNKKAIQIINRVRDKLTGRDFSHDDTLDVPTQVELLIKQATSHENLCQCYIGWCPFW

Structure (SMILES) | pIC50 [1] | pIC50 [2] | IC50 [3] [nM] | PI3Ka IC50 [4] [µM] | inhibition at 1 µM [3] [%]
Cc1cc(NC(=O)Nc2ccc(-c3nc(N4CC5CCC(C4)O5)nc4c3C(=O)N(C)CC(C)(C)O4)cc2F)ccn1 [Example 60, 1-{2-Fluoro-4-[6,8,8-trimethyl-2-(8-oxa-3-azabicyclo[3.2.1]oct-3-yl)-5-oxo-5,6,7,8-tetrahydro-9-oxa-1,3,6-triazabenzocyclohepten-4-yl]phenyl}-3-(2-methylpyridin-4-yl)urea] | 7.24 | 7.34 | 17 | – | –
CCN1CC(C)(C)Oc2nc(N3CC4CCC(C3)O4)nc(-c3ccc(NC(=O)Nc4cnccn4)cc3)c2C1=O [Example 125, 1-{4-[6-Ethyl-8,8-dimethyl-2-(8-oxa-3-azabicyclo[3.2.1]oct-3-yl)-5-oxo-5,6,7,8-tetrahydro-9-oxa-1,3,6-triazabenzocyclohepten-4-yl]phenyl}-3-pyrazin-2-ylurea] | – | 6.59 | 86 | – | –
CN1CC(C)(C)Oc2nc(N3CC4CCC(C3)O4)nc(-c3ccc(NC(=O)Nc4ccc(N5C6CCC5COC6)nc4)c(F)c3)c2C1=O [Example 245, 1-{2-Fluoro-4-[6,8,8-trimethyl-2-(8-oxa-3-azabicyclo[3.2.1]oct-3-yl)-5-oxo-5,6,7,8-tetrahydro-9-oxa-1,3,6-triazabenzocyclohepten-4-yl]phenyl}-3-[6-(3-oxa-8-azabicyclo[3.2.1]oct-8-yl)pyridin-3-yl]urea] | 7.20 | – | 67 | >10 | –
CCN1CC(C)(C)Oc2nc(N3CC4CCC(C3)O4)nc(-c3ccc(NC(=O)N[C@H](C)CO)c(F)c3)c2C1=O [Example 27, 1-{4-[6-ethyl-8,8-dimethyl-2-(8-oxa-3-azabicyclo[3.2.1]oct-3-yl)-5-oxo-5,6,7,8-tetrahydro-9-oxa-1,3,6-triazabenzocyclohepten-4-yl]-2-fluorophenyl}-3-((R)-2-hydroxy-1-methylethyl)urea] | 6.40 | 5.04 | > 1000 | – | –
CCN1CC(C)(C)Oc2nc(N3CC4CCC(C3)O4)nc(-c3ccc(NC(=O)O[C@@H](C)CO)c(F)c3)c2C1=O [Example 61, {4-[6-Ethyl-8,8-dimethyl-2-(8-oxa-3-azabicyclo[3.2.1]oct-3-yl)-5-oxo-5,6,7,8-tetrahydro-9-oxa-1,3,6-triazabenzocyclohepten-4-yl]-2-fluorophenyl}carbamic acid (S)-2-hydroxy-1-methylethyl ester] | 6.00 | 5.33 | > 1000 | – | –
CCN1CC(C)(C)Oc2nc(N3CCOCC3)nc(-c3ccc(NC(=O)NOC)cc3)c2C1=O [Example 104, 1-Methoxy-3-[4-(6-ethyl-8,8-dimethyl-2-morpholin-4-yl-5-oxo-5,6,7,8-tetrahydro-9-oxa-1,3,6-triazabenzocyclohepten-4-yl)phenyl]urea] | 5.83 | < 5.00 | – | 3.75 | –
CCN1CC(C)(C)Oc2nc(N3CC4CCC(C3)O4)nc(-c3ccc(NC(=O)Nc4cc(C)nc(C)n4)c(F)c3)c2C1=O [Example 90, 1-(2,6-Dimethylpyrimidin-4-yl)-3-{4-[6-ethyl-8,8-dimethyl-2-(8-oxa-3-azabicyclo[3.2.1]oct-3-yl)-5-oxo-5,6,7,8-tetrahydro-9-oxa-1,3,6-triazabenzocyclohepten-4-yl]-2-fluorophenyl}urea] | 6.35 | 5.54 | – | – | 64
CCN1CC(C)(C)Oc2nc(N3CC4CCC(C3)O4)nc(-c3ccc(NC(=O)Nc4ccn(C)n4)cc3)c2C1=O [Example 122, 1-{4-[6-Ethyl-8,8-dimethyl-2-(8-oxa-3-azabicyclo[3.2.1]oct-3-yl)-5-oxo-5,6,7,8-tetrahydro-9-oxa-1,3,6-triazabenzocyclohepten-4-yl]phenyl}-3-(1-methyl-1H-pyrazol-3-yl)urea] | – | 6.47 | 140 | – | –
CCN1CC(C)(C)Oc2nc(N3CC4CCC(C3)O4)nc(-c3ccc(NC(=O)NCC(C)(C)O)c(F)c3)c2C1=O [Example 24, 1-{4-[6-ethyl-8,8-dimethyl-2-(8-oxa-3-azabicyclo[3.2.1]oct-3-yl)-5-oxo-5,6,7,8-tetrahydro-9-oxa-1,3,6-triazabenzocyclohepten-4-yl]-2-fluorophenyl}-3-(2-hydroxy-2-methylpropyl)urea] | 5.97 | < 5.00 | > 1000 | – | –
CCN1CC(C)(C)Oc2nc(N3CC4CCC(C3)O4)nc(-c3ccc(NC(=O)N[C@@H](C)CO)c(F)c3)c2C1=O [Example 57, 1-{4-[6-Ethyl-8,8-dimethyl-2-(8-oxa-3-azabicyclo[3.2.1]oct-3-yl)-5-oxo-5,6,7,8-tetrahydro-9-oxa-1,3,6-triazabenzocyclohepten-4-yl]-2-fluorophenyl}-3-((S)-2-hydroxy-1-methylethyl)urea] | – | 5.12 | > 1000 | – | –
CCN1CC(C)(C)Oc2nc(N3CCOCC3)nc(-c3ccc(N)cc3)c2C1=O [Example 102, 4-(4-Aminophenyl)-6-ethyl-8,8-dimethyl-2-morpholin-4-yl-7,8-dihydro-6H-9-oxa-1,3,6-triazabenzocyclohepten-5-one] | 6.03 | 5.01 | – | 3.61 | –
CCNC(=O)Nc1ccc(-c2nc(N3CC4CCC(C3)O4)nc3c2C(=O)N(C[C@@H]2CCCN2C(=O)OCC)CC(C)(C)O3)cc1F [Example 5, (S)-2-[4-[4-(3-ethylureido)-3-fluorophenyl]-8,8-dimethyl-2-(8-oxa-3-azabicyclo[3.2.1]oct-3-yl)-5-oxo-7,8-dihydro-5H-9-oxa-1,3,6-triazabenzocyclohepten-6-ylmethyl]pyrrolidine-1-carboxylic acid ethyl ester] | 6.04 | < 5.00 | – | >10 | –
CCN1CC(C)(C)Oc2nc(N3CC4CCC(C3)O4)nc(-c3ccc(NC(=O)Nc4ccnc(N5CCC(F)(F)CC5)c4)c(F)c3)c2C1=O [Example 261, 1-(4,4-Difluoro-3,4,5,6-tetrahydro-2H-[1,2′]bipyridinyl-4′-yl)-3-{4-[6-ethyl-8,8-dimethyl-2-(8-oxa-3-azabicyclo[3.2.1]oct-3-yl)-5-oxo-5,6,7,8-tetrahydro-9-oxa-1,3,6-triazabenzocyclohepten-4-yl]-2-fluorophenyl}urea] | – | 6.80 | 20 | – | –
CCN1CC(C)(C)Oc2nc(N3CC4CCC(C3)O4)nc(-c3ccc(NC(=O)NCC4CCCO4)c(F)c3)c2C1=O (centres unmarked) [Example 128, 1-{4-[6-Ethyl-8,8-dimethyl-2-(8-oxa-3-azabicyclo[3.2.1]oct-3-yl)-5-oxo-5,6,7,8-tetrahydro-9-oxa-1,3,6-triazabenzocyclohepten-4-yl]-2-fluorophenyl}-3-(tetrahydrofuran-2-ylmethyl)urea] | 5.46 | < 5.00 | – | >10 | –
CCN1CC(C)(C)Oc2nc(N3CC4CCC(C3)O4)nc(-c3ccc(NC(=O)OC[C@@H](C)O)c(F)c3)c2C1=O [Example 239, {4-[6-Ethyl-8,8-dimethyl-2-(8-oxa-3-azabicyclo[3.2.1]oct-3-yl)-5-oxo-5,6,7,8-tetrahydro-9-oxa-1,3,6-triazabenzocyclohepten-4-yl]-2-fluorophenyl}carbamic acid (R)-2-hydroxypropyl ester] | 5.97 | < 5.00 | – | – | 38
COCCN1CC(C)(C)Oc2nc(N3CC4CCC(C3)O4)nc(-c3ccc(NC(=O)Nc4cccc(OC(F)F)c4)c(F)c3)c2C1=O [Example 220, 1-(3-Difluoromethoxyphenyl)-3-{2-fluoro-4-[6-(2-methoxyethyl)-8,8-dimethyl-2-(8-oxa-3-azabicyclo[3.2.1]oct-3-yl)-5-oxo-5,6,7,8-tetrahydro-9-oxa-1,3,6-triazabenzocyclohepten-4-yl]phenyl}urea] | 6.46 | 6.55 | 30 | – | –
CCC(=O)Nc1ccc(-c2nc(N3CC4CCC(C3)O4)nc3c2C(=O)N(CC)CC(C)(C)O3)cc1 [Example 108, N-{4-[6-Ethyl-8,8-dimethyl-2-(8-oxa-3-azabicyclo[3.2.1]oct-3-yl)-5-oxo-5,6,7,8-tetrahydro-9-oxa-1,3,6-triazabenzocyclohepten-4-yl]phenyl}propionamide] | 6.33 | 5.35 | – | >10 | –
